Results reported in article PMC11702208 (RSC Advances, 2025).
Values joined by “and” are separate entries in the source; they are usually repeats but may differ in a detail not shown here. Identical values can stand only once.

How the values were obtained:
[1] = test system: HL-60(TB); conditions: 10.0 μM one dose
[2] = test system: Renal cancer subpanel tumor cell lines; test: NCI cytotoxicity screen, subpanel; format: cell-based, human; conditions: for CC50: read-out: LC50; for GI50 / TGI: subpanel value, Renal cancer
[3] = target: T1, COX-2 (Ovis aries, UniProt P79208); test: Colorimetric COX; format: biochemical, ovine
T1 sequence (P79208 17-603): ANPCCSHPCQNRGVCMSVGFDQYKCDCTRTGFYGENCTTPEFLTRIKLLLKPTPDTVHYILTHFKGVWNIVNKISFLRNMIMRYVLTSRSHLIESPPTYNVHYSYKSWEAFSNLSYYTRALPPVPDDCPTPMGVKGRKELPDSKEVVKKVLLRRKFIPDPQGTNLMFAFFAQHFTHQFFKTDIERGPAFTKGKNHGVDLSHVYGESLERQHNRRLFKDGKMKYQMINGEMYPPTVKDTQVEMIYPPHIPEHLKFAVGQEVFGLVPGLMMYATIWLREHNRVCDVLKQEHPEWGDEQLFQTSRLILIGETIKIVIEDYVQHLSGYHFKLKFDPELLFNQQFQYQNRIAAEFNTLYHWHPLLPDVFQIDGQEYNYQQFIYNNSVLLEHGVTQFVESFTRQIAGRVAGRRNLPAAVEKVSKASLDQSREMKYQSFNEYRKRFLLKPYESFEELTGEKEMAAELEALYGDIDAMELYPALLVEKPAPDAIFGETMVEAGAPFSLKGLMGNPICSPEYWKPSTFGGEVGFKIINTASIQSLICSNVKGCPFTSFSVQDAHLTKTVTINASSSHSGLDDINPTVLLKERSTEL

[4] = test system: Colon cancer subpanel tumor cell lines; test: NCI cytotoxicity screen, subpanel; format: cell-based, human; conditions: for CC50: read-out: LC50; for GI50 / TGI: subpanel value, Colon cancer
[5] = test system: Prostate cancer subpanel tumor cell lines; test: NCI cytotoxicity screen, subpanel; format: cell-based, human; conditions: for CC50: read-out: LC50; for GI50 / TGI: subpanel value, Prostate cancer
[6] = target: EGFR (Homo sapiens, UniProt P00533); test: biochemical; conditions: IC50 EGFR inhibition
Chain of EGFR (P00533 25-1210): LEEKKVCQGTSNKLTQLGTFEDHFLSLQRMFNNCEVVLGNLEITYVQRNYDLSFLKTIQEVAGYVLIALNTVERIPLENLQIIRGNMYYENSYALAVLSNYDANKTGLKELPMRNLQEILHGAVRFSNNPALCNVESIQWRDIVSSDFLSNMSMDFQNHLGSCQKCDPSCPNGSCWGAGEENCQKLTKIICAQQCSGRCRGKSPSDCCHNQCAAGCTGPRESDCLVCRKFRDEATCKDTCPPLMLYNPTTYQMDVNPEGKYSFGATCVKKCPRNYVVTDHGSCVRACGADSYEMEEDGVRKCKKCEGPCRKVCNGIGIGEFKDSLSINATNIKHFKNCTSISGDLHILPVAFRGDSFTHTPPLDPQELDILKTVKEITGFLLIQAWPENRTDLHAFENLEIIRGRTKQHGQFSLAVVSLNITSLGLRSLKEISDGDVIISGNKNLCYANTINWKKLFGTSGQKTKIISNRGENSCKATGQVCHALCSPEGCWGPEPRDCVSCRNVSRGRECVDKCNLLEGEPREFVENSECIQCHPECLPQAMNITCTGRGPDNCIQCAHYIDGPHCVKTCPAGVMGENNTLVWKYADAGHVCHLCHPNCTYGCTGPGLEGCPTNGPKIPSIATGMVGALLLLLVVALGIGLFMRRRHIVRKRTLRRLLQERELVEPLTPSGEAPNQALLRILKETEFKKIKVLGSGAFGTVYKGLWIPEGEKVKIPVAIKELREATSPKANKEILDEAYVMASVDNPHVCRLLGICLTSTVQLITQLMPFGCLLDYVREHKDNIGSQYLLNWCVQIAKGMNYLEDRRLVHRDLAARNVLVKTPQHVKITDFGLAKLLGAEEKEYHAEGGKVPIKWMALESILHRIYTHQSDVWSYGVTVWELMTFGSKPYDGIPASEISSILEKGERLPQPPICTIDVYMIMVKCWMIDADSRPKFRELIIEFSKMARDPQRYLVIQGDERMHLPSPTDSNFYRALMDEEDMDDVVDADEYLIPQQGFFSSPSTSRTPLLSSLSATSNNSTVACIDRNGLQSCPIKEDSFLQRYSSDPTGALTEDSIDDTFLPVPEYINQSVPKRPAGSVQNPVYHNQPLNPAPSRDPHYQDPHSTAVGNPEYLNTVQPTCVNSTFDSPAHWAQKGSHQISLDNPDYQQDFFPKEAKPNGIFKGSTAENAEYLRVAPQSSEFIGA

[7] = test system: MOLT-4; test: NCI cytotoxicity screen; format: cell-based, human; conditions: for GI50: Homo sapiens
[8] = target: CDK9 (Homo sapiens, UniProt P50750); test: biochemical; conditions: IC50 CDK9 inhibition
Chain of CDK9 (P50750 whole entry): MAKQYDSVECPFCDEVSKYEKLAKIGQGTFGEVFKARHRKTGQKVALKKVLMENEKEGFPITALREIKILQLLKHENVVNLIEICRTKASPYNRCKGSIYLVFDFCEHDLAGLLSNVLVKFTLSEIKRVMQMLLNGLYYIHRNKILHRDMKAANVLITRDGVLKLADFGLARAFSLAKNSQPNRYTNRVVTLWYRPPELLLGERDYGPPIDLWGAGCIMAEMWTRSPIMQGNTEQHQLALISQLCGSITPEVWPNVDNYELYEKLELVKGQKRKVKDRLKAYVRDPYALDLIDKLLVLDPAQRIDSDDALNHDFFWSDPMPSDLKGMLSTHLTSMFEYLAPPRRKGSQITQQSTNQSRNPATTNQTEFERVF
Chain of CDK9 (O60563 whole entry partner): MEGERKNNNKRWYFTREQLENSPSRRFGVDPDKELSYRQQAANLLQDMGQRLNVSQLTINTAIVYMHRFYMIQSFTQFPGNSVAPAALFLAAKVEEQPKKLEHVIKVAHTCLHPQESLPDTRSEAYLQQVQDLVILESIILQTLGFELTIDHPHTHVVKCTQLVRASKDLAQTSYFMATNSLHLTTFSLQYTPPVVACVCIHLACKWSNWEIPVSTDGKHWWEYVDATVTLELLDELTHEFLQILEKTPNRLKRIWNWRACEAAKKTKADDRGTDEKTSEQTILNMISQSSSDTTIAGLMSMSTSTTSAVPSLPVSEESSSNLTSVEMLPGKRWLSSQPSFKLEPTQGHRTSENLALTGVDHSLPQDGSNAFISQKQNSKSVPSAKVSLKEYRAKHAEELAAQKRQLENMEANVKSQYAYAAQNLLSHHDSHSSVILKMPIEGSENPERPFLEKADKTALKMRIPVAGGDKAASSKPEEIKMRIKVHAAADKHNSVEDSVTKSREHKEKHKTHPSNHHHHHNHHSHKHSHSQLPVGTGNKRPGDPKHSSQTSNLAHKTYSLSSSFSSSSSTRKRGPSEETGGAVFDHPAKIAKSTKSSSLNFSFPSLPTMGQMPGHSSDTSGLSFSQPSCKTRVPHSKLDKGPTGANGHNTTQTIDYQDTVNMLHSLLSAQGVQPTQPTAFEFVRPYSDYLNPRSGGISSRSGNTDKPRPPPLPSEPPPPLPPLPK

[9] = test system: SW-620; test: NCI cytotoxicity screen; format: cell-based, human; conditions: for GI50: Homo sapiens
[10] = test system: OVCAR-5; test: NCI cytotoxicity screen; format: cell-based, human; conditions: for GI50: Homo sapiens, OVCAR-5
[11] = test system: HT29; test: NCI cytotoxicity screen; format: cell-based, human; conditions: HT-29; for GI50: Homo sapiens
[12] = target: HER2 (Homo sapiens, UniProt P04626); test: HER2 tyrosine kinase assay; format: biochemical; conditions: IC50 HER2 inhibition
Chain of HER2 (P04626 23-1255): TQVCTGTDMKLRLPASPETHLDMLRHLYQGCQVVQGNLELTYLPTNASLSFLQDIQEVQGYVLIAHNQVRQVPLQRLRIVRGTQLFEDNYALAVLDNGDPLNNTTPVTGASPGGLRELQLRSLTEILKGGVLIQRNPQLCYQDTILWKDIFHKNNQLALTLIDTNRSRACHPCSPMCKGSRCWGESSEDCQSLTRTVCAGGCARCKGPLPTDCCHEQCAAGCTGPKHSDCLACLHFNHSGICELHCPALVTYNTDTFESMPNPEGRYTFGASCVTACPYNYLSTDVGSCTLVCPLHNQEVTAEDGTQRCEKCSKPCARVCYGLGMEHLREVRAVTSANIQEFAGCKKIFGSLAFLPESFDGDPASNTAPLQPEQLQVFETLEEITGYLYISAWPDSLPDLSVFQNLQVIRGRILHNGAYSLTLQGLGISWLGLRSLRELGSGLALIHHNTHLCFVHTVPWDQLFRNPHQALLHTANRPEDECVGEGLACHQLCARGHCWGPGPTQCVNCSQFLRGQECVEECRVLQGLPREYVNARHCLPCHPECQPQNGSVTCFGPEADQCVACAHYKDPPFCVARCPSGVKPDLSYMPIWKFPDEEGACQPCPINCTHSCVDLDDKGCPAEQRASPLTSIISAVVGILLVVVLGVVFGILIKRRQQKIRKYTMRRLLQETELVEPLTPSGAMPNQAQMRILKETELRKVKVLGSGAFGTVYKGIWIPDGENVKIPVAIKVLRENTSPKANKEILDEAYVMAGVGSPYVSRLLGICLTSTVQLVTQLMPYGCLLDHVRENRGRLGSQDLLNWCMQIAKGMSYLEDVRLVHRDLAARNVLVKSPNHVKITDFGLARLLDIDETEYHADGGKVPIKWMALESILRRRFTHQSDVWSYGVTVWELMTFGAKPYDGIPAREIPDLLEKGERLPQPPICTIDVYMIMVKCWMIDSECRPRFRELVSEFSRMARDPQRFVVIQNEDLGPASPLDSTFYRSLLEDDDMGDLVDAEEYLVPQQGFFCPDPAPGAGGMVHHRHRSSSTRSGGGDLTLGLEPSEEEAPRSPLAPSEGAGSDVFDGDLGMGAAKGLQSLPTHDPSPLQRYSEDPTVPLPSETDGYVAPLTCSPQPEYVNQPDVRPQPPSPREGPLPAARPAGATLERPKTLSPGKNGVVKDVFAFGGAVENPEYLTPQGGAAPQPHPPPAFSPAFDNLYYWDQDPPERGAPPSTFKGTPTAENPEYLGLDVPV

[13] = test system: HOP-92; test: NCI cytotoxicity screen; format: cell-based, human; conditions: for GI50: Homo sapiens
[14] = test system: NCI-H226; test: NCI cytotoxicity screen; format: cell-based, human; conditions: for GI50: Homo sapiens
[15] = test system: SF-268; test: NCI cytotoxicity screen; format: cell-based, human; conditions: for GI50: Homo sapiens
[16] = test system: IGROV1; test: NCI cytotoxicity screen; format: cell-based, human; conditions: for GI50: Homo sapiens, IGROV-1
[17] = test system: CNS cancer subpanel tumor cell lines; test: NCI cytotoxicity screen, subpanel; format: cell-based, human; conditions: for CC50: read-out: LC50; for GI50 / TGI: subpanel value, CNS cancer
[18] = test system: Breast cancer subpanel tumor cell lines; test: NCI cytotoxicity screen, subpanel; format: cell-based, human; conditions: for CC50: read-out: LC50; for GI50 / TGI: subpanel value, Breast cancer
[19] = test system: RPMI-8226; test: NCI cytotoxicity screen; format: cell-based, human; conditions: for GI50: Homo sapiens
[20] = test system: SK-OV-3; test: NCI cytotoxicity screen; format: cell-based, human; conditions: for GI50: Homo sapiens
[21] = test system: MCF7; test: NCI cytotoxicity screen; format: cell-based, human; conditions: for GI50: Homo sapiens, MCF7
[22] = test system: U251; test: NCI cytotoxicity screen; format: cell-based, human; conditions: U-251; for GI50: Homo sapiens
[23] = test system: K-562; conditions: 10.0 μM one dose
[24] = test system: Leukemia subpanel tumor cell lines; test: NCI cytotoxicity screen, subpanel; format: cell-based, human; conditions: for CC50: read-out: LC50; for GI50 / TGI: subpanel value, Leukemia
[25] = test system: T-47D cells; test: Annexin V-FITC/PI apoptosis assay; format: cell-based
[26] = test system: NCI-H460; test: NCI cytotoxicity screen; format: cell-based, human; conditions: for GI50: Homo sapiens
[27] = test system: HL-60(TB); test: cells; conditions: Homo sapiens
[28] = test system: HCC-2998; test: NCI cytotoxicity screen; format: cell-based, human; conditions: for GI50: Homo sapiens, HCC 2998
[29] = test system: EKVX; test: NCI cytotoxicity screen; format: cell-based, human; conditions: for GI50: Homo sapiens
[30] = test system: LOX IMVI; test: NCI cytotoxicity screen; format: cell-based, human; conditions: for GI50: Homo sapiens
[31] = test system: SK-MEL-28; test: NCI cytotoxicity screen; format: cell-based, human; conditions: for GI50: Homo sapiens
[32] = test system: A498; test: NCI cytotoxicity screen; format: cell-based, human; conditions: Homo sapiens, A498

CCN(CC)c1ccc(C=NNC(=O)CSc2nc3ccccc3c(=O)n2Cc2ccc(S(N)(=O)=O)cc2)c(O)c1 [Compound 5, 4-((2-((2-(2-(4-(Diethylamino)-2-hydroxybenzylidene)hydrazineyl)-2-oxoethyl)thio)-4-oxoquinazolin-3(4H)-yl)methyl)benzenesulfonamide]
GI % [1]: 120% | CC50 ([2]; Homo sapiens): > 100 µM | GI50 ([2]; Homo sapiens): 1.9 µM | GI50 [2]: 1.92 µM | TGI [2]: 91.54 µM | IC50 [3]: 3.32 ± 0.06 µM | CC50 ([4]; Homo sapiens): > 100 µM | GI50 ([4]; Homo sapiens): 1.6 µM | GI50 [4]: 1.56 µM | TGI [4]: c (Compounds showed values > 100 μM) | CC50 ([5]; Homo sapiens): > 100 µM | GI50 ([5]; Homo sapiens): 0.9 µM | GI50 [5]: 0.886 µM | TGI [5]: c (Compounds showed values > 100 μM) | IC50 [6]: 0.0844 µM | GI % ([7]; 10.0 μM one dose): 89% | GI50 [7]: 0.372 µM | IC50 [8]: 0.147 ± 0.0036 µM | GI % ([9]; 10.0 μM one dose): 79% | GI50 [9]: 0.949 µM | GI % ([10]; 10.0 μM one dose, IGROV-5): 45% | GI50 [10]: 2.09 µM | GI % ([11]; 10.0 μM one dose): 68% | GI50 [11]: 3.01 µM | IC50 [12]: 0.0539 µM | GI % ([13]; 10.0 μM one dose): 42% | GI % ([14]; 10.0 μM one dose): 69% | GI50 [14]: 0.894 µM | GI % ([15]; 10.0 μM one dose): 82% | GI50 [15]: 0.766 µM | GI % ([16]; 10.0 μM one dose, IGROV1): 74% | GI50 [16]: 0.785 µM | CC50 ([17]; Homo sapiens): > 100 µM | GI50 ([17]; Homo sapiens): 1.5 µM | GI50 [17]: 1.49 µM | TGI [17]: c (Compounds showed values > 100 μM) | CC50 ([18]; Homo sapiens): > 100 µM | GI50 ([18]; Homo sapiens): 1.2 µM | GI50 [18]: 1.23 µM | TGI [18]: 84.17 µM | GI % ([19]; 10.0 μM one dose): 83% | GI50 [19]: 0.521 µM | GI % ([20]; 10.0 μM one dose): 79% | GI50 [20]: 1.32 µM | GI % ([21]; 10.0 μM one dose, MCF-7): 87% | GI50 [21]: 0.457 µM | GI % ([22]; 10.0 μM one dose): 76% | GI50 [22]: 0.51 µM | GI % [23]: 94% | CC50 ([24]; Homo sapiens): > 100 µM | GI50 ([24]; Homo sapiens): 0.4 µM | GI50 [24]: 0.384 µM | TGI [24]: 68.371 µM | Apoptosis Early [25]: 9.3% and 9.28% | Apoptosis Late [25]: 14.8% and 14.75% | Apoptosis Total [25]: 31.07% | Necrosis [25]: 7.04% | GI % ([26]; 10.0 μM one dose): 94% | GI50 [26]: 0.424 µM | GI50 [27]: 0.412 µM | GI % ([28]; 10.0 μM one dose, HCC-2998): 80% | GI50 [28]: 0.882 µM | GI % ([29]; 10.0 μM one dose): 65% | GI50 [29]: 0.65 µM | GI % ([30]; 10.0 μM one dose): 99% | GI50 [30]: 0.387 µM | GI % ([31]; 10.0 μM one dose): 67% | GI50 [31]: 1.62 µM

C#Cc1cccc(Nc2ncnc3cc(OCCOC)c(OCCOC)cc23)c1 [Erlotinib, reference compound]
CC50 ([2]; Homo sapiens): 89.2 µM | GI50 ([2]; Homo sapiens): 2.5 µM | GI50 [2]: 2.46 µM | TGI [2]: 42.59 µM | CC50 ([4]; Homo sapiens): > 100 µM | GI50 ([4]; Homo sapiens): 51.7 µM | GI50 [4]: 51.7 µM | TGI [4]: c (Compounds showed values > 100 μM) | CC50 ([5]; Homo sapiens): > 100 µM | GI50 ([5]; Homo sapiens): 20.9 µM | TGI [5]: c (Compounds showed values > 100 μM) | GI50 [7]: 5.01 µM | GI50 [9]: 5.01 µM | GI50 [10]: 19.9 µM | GI50 [11]: 50.1 µM | GI50 [13]: 6.3 µM | GI50 [14]: 6.3 µM | GI50 [15]: 19.9 µM | GI50 [16]: 0.25 µM | CC50 ([17]; Homo sapiens): > 100 µM | GI50 ([17]; Homo sapiens): 17 µM | GI50 [17]: 17 µM | TGI [17]: 82.11 µM | CC50 ([18]; Homo sapiens): 96.4 µM | GI50 ([18]; Homo sapiens): 24.7 µM | GI50 [18]: 24.7 µM | TGI [18]: 70.53 µM | GI50 [19]: 5.01 µM | GI50 [20]: 0.39 µM | GI50 [21]: 100 µM | GI50 [22]: 19.9 µM | GI50 [32]: 1.58 µM | CC50 ([24]; Homo sapiens): > 100 µM | GI50 ([24]; Homo sapiens): 27.9 µM | GI50 [24]: 27.9 µM | TGI [24]: 96.57 µM | GI50 [26]: 5.01 µM | GI50 [27]: 5.01 µM | GI50 [28]: 79.3 µM | GI50 [29]: 0.005 µM | GI50 [30]: 5.01 µM | GI50 [31]: 31.6 µM

COc1cc2ncnc(Nc3ccc(F)c(Cl)c3)c2cc1OCCCN1CCOCC1 [Gefitinib, reference compound]
GI50 ([4]; Homo sapiens): 5.2 µM | GI50 [4]: 5.23 µM | TGI [4]: 18.47 µM | GI50 ([5]; Homo sapiens): 3.3 µM | GI50 [5]: 3.29 µM | TGI [5]: 31.62 µM | GI50 [7]: 3.98 µM | GI50 [9]: 7.94 µM | GI50 [10]: 10 µM | GI50 [11]: 3.98 µM | GI50 [13]: 7.94 µM | GI50 [14]: 15.8 µM | GI50 [15]: 7.94 µM | GI50 [16]: 0.2 µM | GI50 ([17]; Homo sapiens): 5.6 µM | GI50 [17]: 5.64 µM | TGI [17]: 19.62 µM | GI50 ([18]; Homo sapiens): 4.7 µM | GI50 [18]: 4.67 µM | TGI [18]: 18.62 µM | GI50 [19]: 1.58 µM | GI50 [21]: 10 µM | GI50 [22]: 10 µM | GI50 [32]: 0.4 µM | GI50 ([24]; Homo sapiens): 2.6 µM | GI50 [24]: 2.56 µM | TGI [24]: 12.07 µM | GI50 [27]: 5.01 µM | GI50 [28]: 10 µM | GI50 [29]: 0.005 µM | GI50 [30]: 7.94 µM | GI50 [31]: 0.31 µM
